Experimental data from US10844017B2, “Biaryl compound, preparation method and use thereof” (FUDAN UNIVERSITY, priority 2017, dated 2020).

Key:
[1] = target: T1, RORγ receptor (B-RORγ LBD / Bioin-SRC1) (Homo sapiens, UniProt P51449); test: Determination of agonistic activities on RORγ receptors in vitro (dual FRET); format: biochemical; settings: average of at least two independent experiments
T1 construct: 40 nM B-RORγ LBD solution
T1 sequence (P51449 269-508 limits assumed): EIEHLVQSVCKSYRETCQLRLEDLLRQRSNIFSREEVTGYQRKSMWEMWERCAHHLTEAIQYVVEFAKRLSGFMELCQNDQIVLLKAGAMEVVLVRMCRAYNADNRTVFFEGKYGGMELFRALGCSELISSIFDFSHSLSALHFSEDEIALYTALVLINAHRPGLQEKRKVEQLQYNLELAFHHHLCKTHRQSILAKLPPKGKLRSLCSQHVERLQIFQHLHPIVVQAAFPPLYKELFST
T1 sequence (Q15788 676-700 partner limits assumed): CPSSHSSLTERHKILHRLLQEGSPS
Procedure: Determination of Agonistic Activities of Compounds on RORγ Receptors In Vitro The agonistic activities of compounds described herein on RORγ receptor were determined by dual fluorescence resonance energy transfer (dual FRET) experiments. The agonistic activity was expressed by half maximum effect concentration (EC50).
1) Preparation of RORγ Assay Buffer
100 mL of buffer solution was well mixed with […] DTT for use.
2) Preparation of Solutions of Compounds
3) Preparation of protein mixtures a) 40 nM B-RORγ LBD solution was mixed well with 20 nM SA-APC solution and incubated for 15 minutes at room temperature. Then the resulting mixture was further mixed well with 400 nM Biotin and incubated for another 10 minutes at room temperature. […]
b) 40 nM Bioin-SRC1 solution was mixed well with 10 nM SA-eu solution and was incubated for 15 minutes at room temperature. Then the resulting mixture was further mixed well with 200 nM Biotin and was incubated for another 10 minutes at room temperature. […]
d) A mixture (25 μL) of B-RORγ LBD/SA-APC and Bioin-SRC1/SA-eu together with a test compound was added to one of the wells of a 384-well plate, and then the plate was centrifuged for one minute at 1000 rpm, and incubated at room temperature for one hour. The data were read on an Envision microplate detector and EC50 values were calculated.

[2] = tested on: Mouse lymphoma EL4 cells transfected with RORγt plasmid; test: Determination of the activation rate on mouse lymphoma EL4 (IL-17 generation); format: cell-based; settings: compound at 2 μM, 24 hours, PMA/ionomycin stimulation 4 hours, flow cytometry, read-out: +act % (activation of IL-17 generated by EL4 cells)
Procedure: Determination of the Activation Rate on Mouse Lymphoma EL4
Mouse lymphoma EL4 cells transfected with RORγt plasmid were cultured at 37° C. under an atmosphere with 5% CO2, with a test compound added simultaneously. After 24 hours, the generation efficiency of IL-17A was analyzed. Before collection of cells, PMA at 50 ng/mL and ionomycin at 500 ng/mL were added for stimulation for 4 hours. The proportion of IL-17 was detected by intracellular staining and flow cytometry. […] The activation rate of IL-17 generated by EL4 cells for the compound was measured at a concentration of 2 μM.

[3] = tested on: Mouse spleen CD4+T cells differentiated into Th17 cells; test: Mouse Th17 cell differentiation, half-maximal effect concentration; format: cell-based; settings: 96 hours, proportion of IL-17 by intracellular staining and flow cytometry
Procedure: Determination of the Half-Maximal Effect Concentration of Mouse Th17 Cell Differentiation
Experimental methods: Mouse spleen CD4^+T cells were separated and differentiated into Th17 cells. CD4^+T cells were cultured in the environment containing anti-CD3 (0.25 μg/mL), anti-CD28 (1 μg/mL), anti-IL4 (2 μg/mL), anti-IFN-γ (2 μg/mL), TGF-β (5 ng/mL), and IL6 (20 ng/mL), with a test compound added at the same time. After 96 hours, the differentiation efficiency of Th17 was analyzed. Before collection of cells, PMA at 50 ng/mL and ionomycin at 500 ng/mL were added for stimulation for 4 hours, and the proportion of IL-17 was detected by intracellular staining and flow cytometry. Meanwhile, we used Live/Dead Cell Dye (Invitrogen) staining method to analyze the cell survival rate and to judge whether the drug had toxicity to cells, and determined the half-maximal effect concentration EC50 of the compounds.

SMILES | EC50 [1] [nM] | activation at 2 µM [2] [%] | EC50 [3] [nM]
CCS(=O)(=O)c1ccc(CC(=O)Nc2cc(Cl)c(-c3ccc(CC(C)C)c(C#N)c3)c(Cl)c2)cc1 [Example 16, N-(2,6-Dichloro-3′-cyano-4′-isobutyl-[1,1′-biphenyl]-4-yl)-2-(4-(ethylsulfonyl)phenyl)acetamide] | 10 to 50 | > 50 | < 50
CC(C)Cc1ccc(-c2c(Cl)cc(NC(=O)Cc3ccc(S(C)(=O)=O)cc3)cc2Cl)cc1C#N [Example 17, N-(2,6-Dichloro-3′-cyano-4′-isobutyl-[1,1′-biphenyl]-4-yl)-2-(4-(methylsulfonyl)phenyl)acetamide] | 10 to 50 | > 50 | < 50
CCS(=O)(=O)c1ccc(CC(=O)Nc2cc(Cl)c(-c3ccc(CC(C)C)c(C#N)c3)c(Cl)c2)nc1 [Example 19, N-(2,6-Dichloro-3′-cyano-4′-isobutyl-[1,1′-biphenyl]-4-yl)-2-(5-(ethylsulfonyl)pyridin-2-yl)acetamide] | – | 20 to 50 | 50 to 150
CC(C)Cc1ccc(-c2c(Cl)cc(NC(=O)Cc3ccc(S(C)(=O)=O)cn3)cc2Cl)cc1C#N [Example 20, N-(2,6-dichloro-3′-cyano-4′-isobutyl-[1,1′-biphenyl]-4-yl)-2-(5-(methylsulfonyl)pyridin-2-yl)acetamide] | 10 to 50 | > 50 | > 150
CC(C)Cc1ccc(-c2c(Cl)cc(NC(=O)Cc3ccc(S(N)(=O)=O)cc3)cc2Cl)cc1C#N [Example 21, N-(2,6-Dichloro-3′-cyano-4′-isobutyl-[1,1′-biphenyl]-4-yl)-2-(4-sulfamoylphenyl)acetamide] | < 10 | 20 to 50 | < 50
CC(C)Cc1ccc(-c2c(Cl)cc(NC(=O)Cc3ccc(C(=O)O)cc3)cc2Cl)cc1C#N [Example 24, 4-(2-((2,6-Dichloro-3′-cyano-4′-isobutyl-[1,1′-biphenyl]-4-yl)amino)-2-oxoethyl)benzoic acid] | < 10 | < 20 | –
CCS(=O)(=O)c1ccc(CC(=O)Nc2cc(Cl)c(-c3ccc(CC(C)C)cc3)c(Cl)c2)cc1 [Example 26, N-(2,6-Dichloro-4′-isobutyl-[1,1′-biphenyl]-4-yl)-2-(4-(ethylsulfonyl)phenyl)acetamide] | 10 to 50 | < 20 | –
CCS(=O)(=O)c1ccc(CC(=O)Nc2cc(Cl)c(-c3ccc(OC(C)C)c(C#N)c3)c(Cl)c2)cc1 [Example 32, N-(2,6-Dichloro-3′-cyano-4′-isopropoxy-[1,1′-biphenyl]-4-yl)-2-(4-(ethylsulfonyl)phenyl)acetamide] | – | – | < 50
CCN(CC)Cc1ccc(-c2c(Cl)cc(NC(=O)Cc3ccc(S(C)(=O)=O)cc3)cc2Cl)cc1C#N [Example 33, N-(2,6-Dichloro-3′-cyano-4′-((diethylamino)methyl)-[1,1′-biphenyl]-4-yl)-2-(4-(methylsulfonyl)phenyl)acetamide] | 10 to 50 | 20 to 50 | –
CN(C)Cc1ccc(-c2c(Cl)cc(NC(=O)Cc3ccc(S(C)(=O)=O)cc3)cc2Cl)cc1C#N [Example 34, N-(2,6-Dichloro-3′-cyano-4′-((dimethylamino)methyl)-[1,1′-biphenyl]-4-yl)-2-(4-(methylsulfonyl)phenyl)acetamide] | 10 to 50 | > 50 | –
CCN(C)Cc1ccc(-c2c(Cl)cc(NC(=O)Cc3ccc(S(=O)(=O)CC)cc3)cc2Cl)cc1C#N [Example 36, N-(2,6-Dichloro-3′-cyano-4′-((ethyl(methyl)amino)methyl)-[1,1′-biphenyl]-4-yl)-2-(4-(ethylsulfonyl)phenyl)acetamide] | 10 to 50 | > 50 | > 150
CCN(CC)Cc1ccc(-c2c(Cl)cc(NC(=O)Cc3ccc(S(=O)(=O)CC)cc3)cc2Cl)cc1C#N [Example 37, N-(2,6-Dichloro-3′-cyano-4′-((diethylamino)methyl)-[1,1′-biphenyl]-4-yl)-2-(4-(ethylsulfonyl)phenyl)acetamide] | 10 to 50 | 20 to 50 | –
CCC(C)Cc1ccc(-c2c(Cl)cc(NC(=O)Cc3ccc(S(=O)(=O)CC)cc3)cc2Cl)cc1C#N (stereo not shown) [Example 41, N-(2,6-Dichloro-3′-cyano-4′-(2-methylbutyl)-[1,1′-biphenyl]-4-yl)-2-(4-(ethylsulfonyl)phenyl)acetamide] | – | – | > 150
CCS(=O)(=O)c1ccc(CC(=O)Nc2cc(Cl)c(-c3ccc(CC4CCC4)c(C#N)c3)c(Cl)c2)cc1 [Example 43, (N-(2,6-Dichloro-3′-cyano-4′-(cyclobutylmethyl)-[1,1′-biphenyl]-4-yl)-2-(4-(ethylsulfonyl)phenyl)acetamide)] | – | – | 50 to 150
CCS(=O)(=O)c1ccc(CNC(=O)c2cc(Cl)c(-c3ccc(CC(C)C)c(C#N)c3)c(Cl)c2)nc1 [Example 49, 2,6-Dichloro-3′-cyano-N-((5-(ethylsulfonyl)pyridin-2-yl)methyl)-4′-isobutyl-[1,1′-biphenyl]-4-carboxamide] | 50 to 100 | < 20 | –
CCS(=O)(=O)c1ccc(CNC(=O)Nc2cc(Cl)c(-c3ccc(CC(C)C)c(C#N)c3)c(Cl)c2)nc1 [Example 55, 1-(2,6-Dichloro-3′-cyano-4′-isobutyl-[1,1′-biphenyl]-4-yl)-3-((5-(ethylsulfonyl)pyridin-2-yl)methyl)urea] | 10 to 50 | 20 to 50 | –
CCS(=O)(=O)c1ccc(CNC(=O)Nc2cc(Cl)c(-c3ccc(CN(C)C)c(C#N)c3)c(Cl)c2)cc1 [Example 58, 1-(2,6-Dichloro-3′-cyano-4′-((dimethylamino)methyl)-[1,1′-biphenyl]-4-yl)-3-(4-(ethylsulfonyl)benzyl)urea] | 10 to 50 | 20 to 50 | –
CCS(=O)(=O)c1ccc(CCNc2cc(Cl)c(-c3ccc(CC(C)C)c(C#N)c3)c(Cl)c2)cc1 [Example 60, 2′,6′-Dichloro-4′-((4-(ethylsulfonyl)phenethyl)amino)-4-isobutyl-[1,1′-biphenyl]-3-carbonitrile] | 10 to 50 | 20 to 50 | –
CCS(=O)(=O)c1ccc(CCNc2cc(Cl)c(-c3ccc(CN(C)C)c(C#N)c3)c(Cl)c2)cc1 [Example 62, 2′,6′-Dichloro-4-((dimethylamino)methyl)-4′((4-(ethylsulfonyl)phenethyl)amino)-[1,1′-biphenyl]-3-carbonitrile] | < 10 | 20 to 50 | –
